Results published in the NIST ThermoML archive (doi:10.1021/je050010l).

Columns and labels:
[1] = xn = mol fraction of the nth substance listed; conditions: 100.8 kPa, Liquid; for viscosity: Capillary tube (Ostwald / Ubbelohde) method
[2] = refractive index (Na D-line) (dimensionless); xn = mol fraction of the nth substance listed; conditions: 100.8 kPa, Liquid, Standard Abbe refractometry
[3] = 100.8 kPa, Liquid; for viscosity: Capillary tube (Ostwald / Ubbelohde) method
[4] = refractive index (Na D-line) (dimensionless); conditions: 101.33 kPa, Liquid, Standard Abbe refractometry

CCO [ethanol] + CC(C)=O
x2 = 0
Conditions	mass density, 288.15 K [kg/m3]	mass density, 298.15 K [kg/m3]	mass density, 308.15 K [kg/m3]	refractive index, 288.15 K	refractive index, 298.15 K	refractive index, 308.15 K	viscosity, 288.15 K [mPa·s]	viscosity, 298.15 K [mPa·s]	viscosity, 308.15 K [mPa·s]
[1]	793.74	785.17	776.49	–	–	–	1.309	1.084	0.905
[2]	–	–	–	1.36342	1.35924	1.35502	–	–	–

CC(C)=O [acetone]
Conditions	mass density, 288.15 K [kg/m3]	mass density, 298.15 K [kg/m3]	mass density, 308.15 K [kg/m3]	refractive index, 288.15 K	refractive index, 298.15 K	refractive index, 308.15 K	viscosity, 288.15 K [mPa·s]	viscosity, 298.15 K [mPa·s]	viscosity, 308.15 K [mPa·s]
[3]	796.87	785.47	773.91	–	–	–	0.334	0.302	0.274
[4]	–	–	–	1.36152	1.35605	1.35057	–	–	–

CCO [ethanol]
Conditions	mass density, 288.15 K [kg/m3]	mass density, 298.15 K [kg/m3]	mass density, 308.15 K [kg/m3]	refractive index, 288.15 K	refractive index, 298.15 K	refractive index, 308.15 K	viscosity, 288.15 K [mPa·s]	viscosity, 298.15 K [mPa·s]	viscosity, 308.15 K [mPa·s]
[3]	793.74	785.17	776.49	–	–	–	1.309	1.084	0.905
[4]	–	–	–	1.36342	1.35924	1.35502	–	–	–

CC(C)CC(C)(C)C [2,2,4-trimethylpentane]
Conditions	mass density, 288.15 K [kg/m3]	mass density, 298.15 K [kg/m3]	mass density, 308.15 K [kg/m3]	refractive index, 288.15 K	refractive index, 298.15 K	refractive index, 308.15 K	viscosity, 288.15 K [mPa·s]	viscosity, 298.15 K [mPa·s]	viscosity, 308.15 K [mPa·s]
[3]	695.95	687.74	679.41	–	–	–	0.537	0.48	0.432
[4]	–	–	–	1.39404	1.389	1.38395	–	–	–

CC(C)=O [acetone] + CC(C)CC(C)(C)C
x1 = 1
Conditions	mass density, 288.15 K [kg/m3]	mass density, 298.15 K [kg/m3]	mass density, 308.15 K [kg/m3]	refractive index, 288.15 K	refractive index, 298.15 K	refractive index, 308.15 K	viscosity, 288.15 K [mPa·s]	viscosity, 298.15 K [mPa·s]	viscosity, 308.15 K [mPa·s]
[1]	796.87	785.47	773.91	–	–	–	0.334	0.302	0.274
[2]	–	–	–	1.36152	1.35605	1.35057	–	–	–

CCO [ethanol] + CC(C)CC(C)(C)C
x1 = 1
Conditions	mass density, 288.15 K [kg/m3]	mass density, 298.15 K [kg/m3]	mass density, 308.15 K [kg/m3]	refractive index, 288.15 K	refractive index, 298.15 K	refractive index, 308.15 K	viscosity, 288.15 K [mPa·s]	viscosity, 298.15 K [mPa·s]	viscosity, 308.15 K [mPa·s]
[1]	793.74	785.17	776.49	–	–	–	1.309	1.084	0.905
[2]	–	–	–	1.36342	1.35924	1.35502	–	–	–
